Test results taken from patent publication US11649255B2, “Indazoles as hematopoietic progenitor kinase 1 (HPK1) inhibitors and methods using same” (1st Biotherapeutics, Inc., priority 2020, dated 2023).

Target: recombinant human HPK1 (Homo sapiens (Human), UniProt Q92918)
Experiment: HPK1 kinase assay (ADP-Glo)
Format: biochemical
Conditions: 25 μM ATP, MBP substrate
In short: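 Activity was read as ADP formed, detected by ADP-Glo luminescence after the reaction of 5 ng recombinant human HPK1 with MBP and ATP (stocks 0.5 μg/μl and 25 μM) for 40 min at 30 °C. Buffer was Tris pH 7.5 with MgCl2, BSA and DTT, with compound in 0.5% DMSO. IC50 came from inhibition curves.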

recombinant human HPK1, sequence (Q92918 whole entry): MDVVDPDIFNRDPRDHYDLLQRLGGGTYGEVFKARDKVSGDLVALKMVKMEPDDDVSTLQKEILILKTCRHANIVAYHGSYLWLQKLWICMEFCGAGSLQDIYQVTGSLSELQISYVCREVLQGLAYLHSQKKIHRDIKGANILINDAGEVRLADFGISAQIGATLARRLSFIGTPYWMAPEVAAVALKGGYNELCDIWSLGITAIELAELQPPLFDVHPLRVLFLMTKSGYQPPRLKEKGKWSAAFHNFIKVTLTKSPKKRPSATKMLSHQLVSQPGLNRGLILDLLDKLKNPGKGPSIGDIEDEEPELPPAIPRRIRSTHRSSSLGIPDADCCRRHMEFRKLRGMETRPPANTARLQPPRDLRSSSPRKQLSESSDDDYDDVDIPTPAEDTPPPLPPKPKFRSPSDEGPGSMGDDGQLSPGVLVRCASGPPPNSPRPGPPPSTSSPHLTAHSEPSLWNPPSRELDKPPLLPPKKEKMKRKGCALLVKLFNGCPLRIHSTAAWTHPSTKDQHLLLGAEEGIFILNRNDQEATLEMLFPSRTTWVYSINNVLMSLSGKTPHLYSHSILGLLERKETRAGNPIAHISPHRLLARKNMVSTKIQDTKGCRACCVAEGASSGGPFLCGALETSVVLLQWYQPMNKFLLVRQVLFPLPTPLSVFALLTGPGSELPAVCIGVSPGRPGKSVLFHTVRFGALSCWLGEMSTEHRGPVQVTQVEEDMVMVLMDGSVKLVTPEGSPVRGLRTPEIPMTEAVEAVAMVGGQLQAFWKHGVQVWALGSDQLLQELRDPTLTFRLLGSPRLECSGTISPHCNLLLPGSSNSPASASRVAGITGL

IC50 | SMILES
< 100 nM | CC(NC1(C#N)CC1)c1c(F)c(Cl)c(-c2ccc3nc(NC(=O)[C@@H]4C[C@@H]4F)cn3c2)c2cn[nH]c12 (stereo partly drawn) [Example 429, (1S,2S)-N-(6-(5-chloro-7-(1-((1-cyanocyclopropyl)amino)ethyl)-6-fluoro-1H-indazol-4-yl)imidazo[1,2-a]pyridin-2-yl)-2-fluorocyclopropane-1-carboxamide]
< 100 nM | CCOc1c(F)c(Cl)c(-c2ccn3nc(NC(=O)[C@@H]4C[C@@H]4F)cc3c2)c2cn[nH]c12 [Example 493, (1S,2S)-N-(5-(5-chloro-7-ethoxy-6-fluoro-1H-indazol-4-yl)pyrazolo[1,5-a]pyridin-2-yl)-2-fluorocyclopropane-1-carboxamide]
< 100 nM | CC(C)Nc1c(F)c(Cl)c(-c2ccn3nc(NC(=O)[C@@H]4C[C@@H]4F)cc3c2)c2cn[nH]c12 [Example 619, (1S,2S)-N-(5-(5-chloro-6-fluoro-7-(isopropylamino)-1H-indazol-4-yl)pyrazolo[1,5-a]pyridin-2-yl)-2-fluorocyclopropane-1-carboxamide]
> 1000 nM | O=C(Nc1cn2cc(-c3c(Br)c(F)cc4[nH]ncc34)ccc2n1)C1CC1 [Example 231, N-(6-(5-bromo-6-fluoro-1H-indazol-4-yl)imidazo[1,2-a]pyridin-2-yl)cyclopropanecarboxamide]
101 to 500 nM | CNC(=O)c1c(F)c(C)c(-c2ccn3nc(NC(=O)[C@@H]4C[C@@H]4F)cc3c2)c2cn[nH]c12 [Example 584, 6-fluoro-4-(2-((1S,2S)-2-fluorocyclopropane-1-carboxamido)pyrazolo[1,5-a]pyridin-5-yl)-N,5-dimethyl-1H-indazole-7-carboxamide]
101 to 500 nM | CNC(=O)c1c(F)c(C)c(-c2ccc3nc(NC(=O)[C@@H]4C[C@@H]4F)sc3n2)c2cn[nH]c12 [Example 206, 6-fluoro-4-(2-((1S,2S)-2-fluorocyclopropane-1-carboxamido)thiazolo[5,4-b]pyridin-5-yl)-N,5-dimethyl-1H-indazole-7-carboxamide]
< 100 nM | CN(C)C(=O)CNc1c(F)c(Cl)c(-c2ccc3nc(NC(=O)[C@@H]4C[C@@H]4F)cn3c2)c2cn[nH]c12 [Example 397, (1S,2S)-N-(6-(5-chloro-7-((2-(dimethylamino)-2-oxoethyl)amino)-6-fluoro-1H-indazol-4-yl)imidazo[1,2-a]pyridin-2-yl)-2-fluorocyclopropane-1-carboxamide]
< 100 nM | CCc1c(F)c(C(F)(F)F)c2[nH]ncc2c1-c1ccn2nc(NC(=O)[C@@H]3C[C@@H]3F)cc2c1 [Example 585, (1S,2S)-N-(5-(5-ethyl-6-fluoro-7-(trifluoromethyl)-1H-indazol-4-yl)pyrazolo[1,5-a]pyridin-2-yl)-2-fluorocyclopropane-1-carboxamide]
< 100 nM | CN(C)c1c(F)c(C(F)(F)F)c(-c2ccc3nc(NC(=O)[C@@H]4C[C@@H]4F)cn3c2)c2cn[nH]c12 [Example 307, (1S,2S)-N-(6-(7-(dimethylamino)-6-fluoro-5-(trifluoromethyl)-1H-indazol-4-yl)imidazo[1,2-a]pyridin-2-yl)-2-fluorocyclopropane-1-carboxamide]
< 100 nM | CCc1c(F)c(SCC(=O)O)c2[nH]ncc2c1-c1ccn2nc(NC(=O)[C@@H]3C[C@@H]3F)cc2c1 [Example 526, 2-((5-ethyl-6-fluoro-4-(2-((1S,2S)-2-fluorocyclopropane-1-carboxamido)pyrazolo[1,5-a]pyridin-5-yl)-1H-indazol-7-yl)thio)acetic acid]
< 100 nM | CN(c1ncccn1)c1c(F)c(Cl)c(-c2ccn3nc(NC(=O)[C@@H]4C[C@@H]4F)cc3c2)c2cn[nH]c12 [Example 596, (1S,2S)-N-(5-(5-chloro-6-fluoro-7-(methyl(pyrimidin-2-yl)amino)-1H-indazol-4-yl)pyrazolo[1,5-a]pyridin-2-yl)-2-fluorocyclopropane-1-carboxamide]
< 100 nM | O=C(Nc1cn2cc(-c3c(Br)ccc4[nH]ncc34)ccc2n1)[C@@H]1C[C@@H]1F [Example 238, (1S,2S)-N-(6-(5-bromo-1H-indazol-4-yl)imidazo[1,2-a]pyridin-2-yl)-2-fluorocyclopropane-1-carboxamide]
< 100 nM | CC(=O)c1ccc2[nH]ncc2c1-c1ccc2nc(NC(=O)C3CC3)cn2c1 [Example 239, N-(6-(5-acetyl-1H-indazol-4-yl)imidazo[1,2-a]pyridin-2-yl)cyclopropanecarboxamide]
< 100 nM | CCc1c(F)c(F)c2[nH]ncc2c1-c1ccc2nc(NC(=O)[C@@H]3C[C@@H]3F)sc2c1 [Example 106, (1S,2S)-N-(6-(5-ethyl-6,7-difluoro-1H-indazol-4-yl)benzo[d]thiazol-2-yl)-2-fluorocyclopropane-1-carboxamide]
< 100 nM | O=C(Nc1cn2cc(-c3c(Cl)c(F)c(N(C(=O)C(F)(F)F)C4CC4)c4[nH]ncc34)ccc2n1)[C@@H]1C[C@@H]1F [Example 368, (1S,2S)-N-(6-(5-chloro-7-(N-cyclopropyl-2,2,2-trifluoroacetamido)-6-fluoro-1H-indazol-4-yl)imidazo[1,2-a]pyridin-2-yl)-2-fluorocyclopropane-1-carboxamide]
< 100 nM | N#Cc1c(F)c(Cl)c(-c2ccn3nc(NC(=O)[C@@H]4C[C@@H]4F)cc3c2)c2cn[nH]c12 [Example 586, (1S,2S)-N-(5-(5-chloro-7-cyano-6-fluoro-1H-indazol-4-yl)pyrazolo[1,5-a]pyridin-2-yl)-2-fluorocyclopropane-1-carboxamide]
101 to 500 nM | CN1CCN(c2c(F)c(Cl)c(-c3ccc4nc(NC(=O)[C@@H]5C[C@@H]5F)sc4c3)c3cn[nH]c23)CC1 [Example 75, (1S,2S)-N-(6-(5-chloro-6-fluoro-7-(4-methylpiperazin-1-yl)-1H-indazol-4-yl)benzo[d]thiazol-2-yl)-2-fluorocyclopropane-1-carboxamide]
101 to 500 nM | COc1ccc2[nH]ncc2c1-c1ccn2nc(NC(=O)[C@@H]3C[C@@H]3F)cc2c1 [Example 449, (1S,2S)-2-fluoro-N-(5-(5-methoxy-1H-indazol-4-yl)pyrazolo[1,5-a]pyridin-2-yl)cyclopropane-1-carboxamide]
< 100 nM | Cc1c(F)c(C)c2[nH]ncc2c1-c1ccc2nc(NC(=O)[C@@H]3C[C@@H]3F)sc2c1 [Example 59, (1S,2S)-2-fluoro-N-(6-(6-fluoro-5,7-dimethyl-1H-indazol-4-yl)benzo[d]thiazol-2-yl)cyclopropane-1-carboxamide]
101 to 500 nM | N#Cc1ccc2[nH]ncc2c1-c1ccc2nc(NC(=O)C3CC3)sc2c1 [Example 29, N-(6-(5-cyano-1H-indazol-4-yl)benzo[d]thiazol-2-yl)cyclopropanecarboxamide]
< 100 nM | CCOc1c(F)c(Cl)c(-c2ccc3nc(NC(=O)[C@@H]4C[C@@H]4F)sc3c2)c2cn[nH]c12 [Example 81, (1S,2S)-N-(6-(5-chloro-7-ethoxy-6-fluoro-1H-indazol-4-yl)benzo[d]thiazol-2-yl)-2-fluorocyclopropane-1-carboxamide]
< 100 nM | CN(c1ccncn1)c1c(F)c(Cl)c(-c2ccc3nc(NC(=O)[C@@H]4C[C@@H]4F)cn3c2)c2cn[nH]c12 [Example 348, (1S,2S)-N-(6-(5-chloro-6-fluoro-7-(methyl(pyrimidin-4-yl)amino)-1H-indazol-4-yl)imidazo[1,2-a]pyridin-2-yl)-2-fluorocyclopropane-1-carboxamide]
< 100 nM | Cc1c(F)c(OCCNC(=O)C(F)(F)F)c2[nH]ncc2c1-c1ccn2nc(NC(=O)[C@@H]3C[C@@H]3F)cc2c1 [Example 547, (1S,2S)-2-fluoro-N-(5-(6-fluoro-5-methyl-7-(2-(2,2,2-trifluoroacetamido)ethoxy)-1H-indazol-4-yl)pyrazolo[1,5-a]pyridin-2-yl)cyclopropane-1-carboxamide]
< 100 nM | C[C@H]1[C@H](C(=O)Nc2cc3cc(-c4c(Cl)c(F)c(N(C)C)c5[nH]ncc45)ccn3n2)[C@H]1c1cnn(C)c1 [Example 646, (1S,2R,3S)-N-(5-(5-chloro-7-(dimethylamino)-6-fluoro-1H-indazol-4-yl)pyrazolo[1,5-a]pyridin-2-yl)-2-methyl-3-(1-methyl-1H-pyrazol-4-yl)cyclopropane-1-carboxamide]
< 100 nM | O=C(Nc1cc2cc(-c3c(Cl)c(F)c(NCC4CC4)c4[nH]ncc34)ccn2n1)[C@@H]1C[C@@H]1F [Example 654, (1S,2S)-N-(5-(5-chloro-7-((cyclopropylmethyl)amino)-6-fluoro-1H-indazol-4-yl)pyrazolo[1,5-a]pyridin-2-yl)-2-fluorocyclopropane-1-carboxamide]
< 100 nM | CN(C)c1c(F)c(Cl)c(-c2ccc3nc(NC(=O)NC4CC4)cn3c2)c2cn[nH]c12 [Example 387, 1-(6-(5-chloro-7-(dimethylamino)-6-fluoro-1H-indazol-4-yl)imidazo[1,2-a]pyridin-2-yl)-3-cyclopropylurea]
< 100 nM | CC(=O)N(C)C(C)c1c(F)c(Cl)c(-c2ccc3nc(NC(=O)[C@@H]4C[C@@H]4F)cn3c2)c2cn[nH]c12 (stereo partly drawn) [Example 412, (1S,2S)-N-(6-(5-chloro-6-fluoro-7-(1-(N-methylacetamido)ethyl)-1H-indazol-4-yl)imidazo[1,2-a]pyridin-2-yl)-2-fluorocyclopropane-1-carboxamide]
< 100 nM | Nc1c(F)c(Cl)c(-c2ccn3nc(NC(=O)[C@@H]4C[C@@H]4F)cc3c2)c2cn[nH]c12 [Example 510, (1S,2S)-N-(5-(7-amino-5-chloro-6-fluoro-1H-indazol-4-yl)pyrazolo[1,5-a]pyridin-2-yl)-2-fluorocyclopropane-1-carboxamide]
< 100 nM | CCOc1cc(C)c(-c2ccc3nc(NC(=O)[C@@H]4C[C@@H]4F)cn3c2)c2cn[nH]c12 [Example 287, (1S,2S)-N-(6-(7-ethoxy-5-methyl-1H-indazol-4-yl)imidazo[1,2-a]pyridin-2-yl)-2-fluorocyclopropane-1-carboxamide]
